Literature values in PMC9923514 (Journal of chemical information and modeling, 2022).

Assays:
ZIKV NS5 RdRp = ZIKV NS5 RdRp (Zika virus, UniProt A0A024B7W1); conditions: for IC50: read-out: NS5 RdRp IC50
ZIKV NS2B-NS3pro = ZIKV NS2B-NS3pro (Zika virus, UniProt A0A024B7W1); conditions: read-out: NS2B-NS3pro IC50; allosteric inhibitor
ZIKV NS2B-NS3pro, sequence (A0A024B7W1 1503-1680): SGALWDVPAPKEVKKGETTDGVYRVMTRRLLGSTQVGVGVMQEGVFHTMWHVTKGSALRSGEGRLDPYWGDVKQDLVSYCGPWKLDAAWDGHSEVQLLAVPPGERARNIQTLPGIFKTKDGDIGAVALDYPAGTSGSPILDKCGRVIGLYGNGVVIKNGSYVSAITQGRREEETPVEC
ZIKV NS2B-NS3pro, sequence (A0A024B7W1 1373-1502): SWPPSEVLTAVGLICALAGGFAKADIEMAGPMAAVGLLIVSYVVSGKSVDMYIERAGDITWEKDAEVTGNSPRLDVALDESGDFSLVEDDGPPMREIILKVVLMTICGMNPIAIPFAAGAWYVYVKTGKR

ZIKV NS5 RdRp, sequence (A0A024B7W1 2521-3423): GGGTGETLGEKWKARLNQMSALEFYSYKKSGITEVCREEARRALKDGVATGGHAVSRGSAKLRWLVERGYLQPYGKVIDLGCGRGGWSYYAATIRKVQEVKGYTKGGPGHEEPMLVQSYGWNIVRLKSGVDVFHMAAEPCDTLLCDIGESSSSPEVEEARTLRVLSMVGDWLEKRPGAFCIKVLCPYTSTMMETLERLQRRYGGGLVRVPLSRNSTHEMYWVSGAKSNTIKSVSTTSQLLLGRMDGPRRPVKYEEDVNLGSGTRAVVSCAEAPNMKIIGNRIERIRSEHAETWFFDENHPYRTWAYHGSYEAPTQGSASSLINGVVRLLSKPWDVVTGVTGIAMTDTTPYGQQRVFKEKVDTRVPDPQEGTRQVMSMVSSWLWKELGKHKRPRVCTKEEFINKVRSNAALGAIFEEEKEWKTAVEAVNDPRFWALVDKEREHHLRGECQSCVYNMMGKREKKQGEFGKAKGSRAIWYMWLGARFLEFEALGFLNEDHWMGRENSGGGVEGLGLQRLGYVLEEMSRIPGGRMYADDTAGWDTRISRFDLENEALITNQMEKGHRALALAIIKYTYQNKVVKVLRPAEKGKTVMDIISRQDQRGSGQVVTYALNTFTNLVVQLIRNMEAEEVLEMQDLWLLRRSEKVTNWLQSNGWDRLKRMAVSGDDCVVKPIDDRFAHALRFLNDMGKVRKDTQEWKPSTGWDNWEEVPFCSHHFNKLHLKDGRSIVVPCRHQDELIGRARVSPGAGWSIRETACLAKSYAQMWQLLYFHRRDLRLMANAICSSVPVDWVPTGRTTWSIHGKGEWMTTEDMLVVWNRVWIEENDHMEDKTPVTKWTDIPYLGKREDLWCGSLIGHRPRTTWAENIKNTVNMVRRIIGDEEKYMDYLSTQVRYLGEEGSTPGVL

IC50 (ZIKV NS5 RdRp) | SMILES | other results
– | O[C@H]1[C@H]2c3cc4c(cc3CN3CCC(=C[C@@H]1O)[C@H]23)OCO4 [lycorine] | NS5 RdRp inhibition (ZIKV NS5 RdRp; at 50 μM): 60%
2400 nM | CCCCCOCc1c(Nc2ccc(S(N)(=O)=O)cc2)nc(N2CCOCC2)nc1C(=O)NCCOc1ccccc1 [2-morpholino-5-((pentyloxy)methyl)-N-(2-phenoxyethyl)-6-((4-sulfamoylphenyl)amino)pyrimidine-4-carboxamide] | –
94 nM | O=C(NC(=S)Nc1ccc(N2CCN(C(=O)c3cccs3)CC2)cc1)c1sc2ccccc2c1Cl [TBP, 3-chloro-N-[({4-[4-(2-thienylcarbonyl)-1-piperazinyl]phenyl}amino)carbonothioyl]-1-benzothiophene-2-carboxamide] | –
– | Nc1cc(N)c(N=Nc2ccc(S(=O)(=O)Nc3nccs3)cc2)cc1N=Nc1ccc(S(=O)(=O)Nc2nccs2)cc1 [NSC86314] | IC50 (ZIKV NS2B-NS3pro): 1120 ± 110 nM
